Like-named read-outs stand apart in the source and are kept apart here.
How the values were obtained:
[1] = tested on: MV4;11 cells; assay: Cell viability assay (CellTiter-Glo) in MV4;11 cells; assay type: cell-based; details: read-out: MV4
How it was run: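 5000 cells/well in RPMI 1640 or DMEM with 10% FBS, treated with 8- or 12-point 3-fold compound dilutions, with or without gilteritinib (10 nM for MV4;11, 20 nM for MOLM-13). Viability by CellTiter-Glo after three days; IC50 by nonlinear least-squares regression.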

[2] = tested on: MOLM-13 cells; assay: Cell viability assay (CellTiter-Glo) in MOLM-13 cells; assay type: cell-based
[3] = Homo sapiens, MV4-11, 72 h, MV4;11 cells, compound alone, three days, 11 IC50
[4] = Homo sapiens, 72 h, MOLM-13 cells, compound alone, three days, read-out: MOLM-13 IC50
[5] = Homo sapiens, MV4-11, 72 h, 11 IC50 (nM)
[6] = Homo sapiens, MOLM-13, 72 h, read-out: MOLM-13 IC50 (nM)
[7] = read-out: MOLM-13 IC50 (nM) + 10 nM Gil, MOLM-13 cells, with gilteritinib, three days
[8] = MV4;11 cells, with 10 nM gilteritinib, three days, 11 IC50 (nM) + 10 nM Gil
[9] = MOLM-13 cells, with gilteritinib, three days, read-out: MOLM-13 IC50 (nM) + 10 nM Gil

IC50 [1, 3] [nM]	IC50 [2, 4] [nM]	IC50 [1, 8] [nM]	IC50 [2, 9] [nM]	IC50 ([1]; MV4;11 cells, compound alone, three days, 11 IC50) [nM]	SMILES	IC50 [1, 5] [nM]	IC50 [2, 6] [nM]	IC50 [2, 7] [nM]	IC50 ([1]; 11 IC50 (nM) + 10 nM Gil, MV4;11 cells, with 10 nM gilteritinib, three days) [nM]
100 to 1000	> 1000	100 to 1000	100 to 1000		Cc1cccc(-c2cn(C3CC4(CC(CNc5ccc6c(c5)C(=O)N(C5CCC(=O)NC5=O)C6=O)C4)C3)nc2C2CC2)n1 (centres unmarked) [GS-775]				
100 to 1000	> 1000	10 to 100	100 to 1000		Cc1cccc(-c2cn(C3CC4(CC(C(=O)NCc5ccc6c(c5)C(=O)N(C5CCC(=O)NC5=O)C6=O)C4)C3)nc2C2CC2)n1 (centres unmarked) [GS-774, 6-(3-Cyclopropyl-4-(6-methylpyridin-2-yl)-1H-pyrazol-1-yl)-N-((2-(2,6-dioxopiperidin-3-yl)-1,3-dioxoisoindolin-5-yl)methyl)spiro[3.3]heptane-2-carboxamide]				
10 to 100	10 to 100	< 10	10 to 100		O=C1CCC(N2C(=O)c3ccc(NC[C@H]4C[C@H](n5nc(C6CC6)cc5Cc5ccccc5)C4)cc3C2=O)C(=O)N1 (stereo partly drawn) [GS-741, 5-((Trans-3-(5-benzyl-3-cyclopropyl-1H-pyrazol-1-yl)cyclobutyl)methylamino)-2-(2,6-dioxopiperidin-3-yl)isoindoline-1,3-dione]				
100 to 1000	100 to 1000	10 to 100	10 to 100		Cn1ncc2cnc(-c3cn([C@H]4C[C@H](CCc5ccc6c(c5)C(=O)N(C5CCC(=O)NC5=O)C6=O)C4)nc3C3CC3)cc21 (stereo partly drawn) [GS-767, 5-(2-(Trans-3-(3-cyclopropyl-4-(1-methyl-1H-pyrazolo[4,3-c]pyridin-6-yl)-1H-pyrazol-1-yl)cyclobutyl)ethyl)-2-(2,6-dioxopiperidin-3-yl)isoindoline-1,3-dione]				
10 to 100	10 to 100	< 10	< 10		Cc1nc(-c2cn([C@H]3C[C@H](CNc4ccc5c(c4)C(=O)N(C4CCC(=O)NC4=O)C5=O)C3)nc2C2CC2)cc2c1cnn2C (stereo partly drawn) [GS-747, 5-(((Trans-3-(3-cyclopropyl-4-(1,4-dimethyl-1H-pyrazolo[4,3-c]pyridin-6-yl)-1H-pyrazol-1-yl)cyclobutyl)methyl)amino)-2-(2,6-dioxopiperidin-3-yl)isoindoline-1,3-dione]				
10 to 100	10 to 100	10 to 100	< 10		O=C1CCC(N2C(=O)c3ccc(NC[C@H]4C[C@H](n5cc(-c6ncccc6[C@H]6C[C@H](O)C6)c(C6CC6)n5)C4)cc3C2=O)C(=O)N1 (some centres unmarked) [GS-772]				
	> 1000	10 to 100	10 to 100	100 to 1000	Cc1nc(-c2cn(C3CC(O)(CNc4ccc5c(c4)C(=O)N(C4CCC(=O)NC4=O)C5=O)C3)nc2C2CC2)ccc1F (stereo not drawn) [GS-759, 5-(((Cis-3-(3-cyclopropyl-4-(5-fluoro-6-methylpyridin-2-yl)-1H-pyrazol-1-yl)-1-hydroxycyclobutyl)methyl)amino)-2-(2,6-dioxopiperidin-3-yl)isoindoline-1,3-dione]				
10 to 100	10 to 100	< 10	< 10		O=C1CCC(N2C(=O)c3ccc(NC[C@H]4C[C@H](n5cc(-c6cc7c(cn6)cnn7C6CC(O)C6)c(C6CC6)n5)C4)cc3C2=O)C(=O)N1 (stereo partly drawn) [GS-763, 5-(((Trans-3-(3-cyclopropyl-4-(1-(3-hydroxycyclobutyl)-1H-pyrazolo[4,3-c]pyridin-6-yl)-1H-pyrazol-1-yl)cyclobutyl)methyl)amino)-2-(2,6-dioxopiperidin-3-yl)isoindoline-1,3-dione]				
< 10	< 10	< 10	< 10		Cn1ccc2c(-c3cn([C@H]4C[C@H](CNc5ccc6c(c5)C(=O)N(C5CCC(=O)NC5=O)C6=O)C4)nc3C3CC3)ncc(F)c21 (stereo partly drawn) [GS-768, 5-(((Trans-3-(3-cyclopropyl-4-(7-fluoro-1-methyl-1H-pyrrolo[3,2-c]pyridin-4-yl)-1H-pyrazol-1-yl)cyclobutyl)methyl)amino)-2-(2,6-dioxopiperidin-3-yl)isoindoline-1,3-dione]				
> 1000	> 1000				Cc1nc(-c2cn([C@H]3C[C@H](COc4ccc5c(c4)CN(C4CCC(=O)NC4=O)C5=O)C3)nc2C2CC2)ccc1F (stereo partly drawn) [GS-787, 3-(5-((Trans-3-(3-cyclopropyl-4-(5-fluoro-6-methylpyridin-2-yl)-1H-pyrazol-1-yl)cyclobutyl)methoxy)-1-oxoisoindolin-2-yl)piperidine-2,6-dione]				
< 10	< 10	< 10	< 10		CC(C)n1cc2c(-c3cn([C@H]4C[C@H](CNc5ccc6c(c5)C(=O)N(C5CCC(=O)NC5=O)C6=O)C4)nc3C3CC3)ncc(F)c2n1 (stereo partly drawn) [GS-743, 5-(((Trans-3-(3-cyclopropyl-4-(7-fluoro-2-isopropyl-2H-pyrazolo[4,3-c]pyridin-4-yl)-1H-pyrazol-1-yl)cyclobutyl)methyl)amino)-2-(2,6-dioxopiperidin-3-yl)isoindoline-1,3-dione]				

Continued, molecule first:

SMILES	IC50 [1, 3] [nM]	IC50 [2, 4] [nM]	IC50 [1, 8] [nM]	IC50 [2, 9] [nM]	IC50 ([1]; MV4;11 cells, compound alone, three days, 11 IC50) [nM]	IC50 [1, 5] [nM]	IC50 [2, 6] [nM]	IC50 [2, 7] [nM]	IC50 ([1]; 11 IC50 (nM) + 10 nM Gil, MV4;11 cells, with 10 nM gilteritinib, three days) [nM]
COc1ccc2c(C3CC3)nn([C@H]3C[C@H](CNc4ccc5c(c4)C(=O)N(C4CCC(=O)NC4=O)C5=O)C3)c2n1 (stereo partly drawn) [GS-674, 5-(((Trans-3-(3-cyclopropyl-6-methoxy-1H-pyrazolo[3,4-b]pyridin-1-yl)cyclobutyl)methyl)amino)-2-(2,6-dioxopiperidin-3-yl)isoindoline-1,3-dione]	> 1000	> 1000							
O=C1CCC(N2C(=O)c3ccc(NC[C@H]4C[C@H](n5cc(Nc6ccncc6)c(C6CC6)n5)C4)cc3C2=O)C(=O)N1 (stereo partly drawn) [GS-671, 5-(((Trans-3-(3-cyclopropyl-4-(pyridin-4-ylamino)-1H-pyrazol-1-yl)cyclobutyl)methyl)amino)-2-(2,6-dioxopiperidin-3-y)isoindoline-1,3-dione]						> 1000	> 1000	100 to 1000	
COC1CCCCC1c1cn([C@H]2C[C@H](CNc3ccc4c(c3)C(=O)N(C3CCC(=O)NC3=O)C4=O)C2)nc1C1CC1 (stereo partly drawn) [GS-646, 5-(((Trans-3-(3-cyclopropyl-4-(2-methoxycyclohexyl)-1H-pyrazol-1-yl)cyclobutyl)methyl)amino)-2-(2,6-dioxopiperidin-3-yl)isoindoline-1,3-dione]	10 to 100	100 to 1000	10 to 100	10 to 100					
O=C1CCC(N2Cc3ccc(CC[C@H]4C[C@H](n5cc(-c6cnc7ccccc7n6)c(C6CC6)n5)C4)cc3C2=O)C(=O)N1 (stereo partly drawn) [GS-725, 3-(6-(2-(Trans-3-(3-cyclopropyl-4-(quinoxalin-2-yl)-1H-pyrazol-1-yl)cyclobutyl)ethyl)-1-oxoisoindolin-2-yl)piperidine-2,6-dione]						100 to 1000	> 1000	100 to 1000	10 to 100
Cc1cccc2cnn([C@H]3C[C@H](CNc4ccc5c(c4)C(=O)N(C4CCC(=O)NC4=O)C5=O)C3)c12 (stereo partly drawn) [GS-693, 2-(2,6-Dioxopiperidin-3-yl)-5-(((trans-3-(7-methyl-1H-indazol-1-yl)cyclobutyl)methyl)amino)isoindoline-1,3-dione]	> 1000	> 1000	100 to 1000	100 to 1000					
O=C1CCC(N2C(=O)c3ccc(NC[C@H]4C[C@H](n5cc(NC6CCOCC6)c(C6CC6)n5)C4)cc3C2=O)C(=O)N1 (stereo partly drawn) [GS-708, 5-(((Trans-3-(3-cyclopropyl-4-((tetrahydro-2H-pyran-4-yl)amino)-1H-pyrazol-1-yl)cyclobutyl)methyl)amino)-2-(2,6-dioxopiperidin-3-yl)isoindoline-1,3-dione]	> 1000	> 1000		100 to 1000					
CC(C)n1ccc2nc(-c3cn([C@H]4C[C@H](CNc5ccc6c(c5)C(=O)N(C5CCC(=O)NC5=O)C6=O)C4)nc3C3CC3)ccc21 (stereo partly drawn) [GS-696, 5-(((Trans-3-(3-cyclopropyl-4-(1-isopropyl-1H-pyrrolo[3,2-b]pyridin-5-yl)-1H-pyrazol-1-yl)cyclobutyl)methyl)amino)-2-(2,6-dioxopiperidin-3-yl)isoindoline-1,3-dione]	100 to 1000	> 1000	10 to 100	10 to 100					
O=C1CCC(N2C(=O)c3ccc(NCCC[C@H]4C[C@H](n5cc(-c6nccc7c6NCCC7)c(C6CC6)n5)C4)cc3C2=O)C(=O)N1 (stereo partly drawn) [GS-685, 5-((3-(Trans-3-(3-cyclopropyl-4-(1,2,3,4-tetrahydro-1,7-naphthyridin-8-yl)-1H-pyrazol-1-yl)cyclobutyl)propyl)amino)-2-(2,6-dioxopiperidin-3-yl)isoindoline-1,3-dione]	> 1000	> 1000	100 to 1000	100 to 1000					
O=C1CCC(N2C(=O)c3ccc(NC[C@H]4C[C@H](n5ncc6ccccc65)C4)cc3C2=O)C(=O)N1 (stereo partly drawn) [GS-728, 5-(((Trans-3-(1H-indazol-1-yl)cyclobutyl)methyl)amino)-2-(2,6-dioxopiperidin-3-yl)isoindoline-1,3-dione]	> 1000	> 1000		10 to 100					
O=C1CCC(N2C(=O)c3ccc(NC[C@H]4C[C@H](n5cc(-c6ccc7[nH]ncc7n6)c(C6CC6)n5)C4)cc3C2=O)C(=O)N1 (stereo partly drawn) [GS-684, 5-(((Trans-3-(3-cyclopropyl-4-(1H-pyrazolo[4,3-b]pyridin-5-yl)-1H-pyrazol-1-yl)cyclobutyl)methyl)amino)-2-(2,6-dioxopiperidin-3-yl)isoindoline-1,3-dione]	10 to 100	100 to 1000	10 to 100	10 to 100					
